Experimental data taken from ChEMBL document CHEMBL5291721, “A preclinical secondary pharmacology resource illuminates target-adverse drug reaction associations of marketed drugs” (Nat Commun, 2023).

Experiments:
[1] = target: T1, Alpha-2B adrenergic receptor (Homo sapiens, UniProt P18089)
T1 sequence (P18089 whole entry): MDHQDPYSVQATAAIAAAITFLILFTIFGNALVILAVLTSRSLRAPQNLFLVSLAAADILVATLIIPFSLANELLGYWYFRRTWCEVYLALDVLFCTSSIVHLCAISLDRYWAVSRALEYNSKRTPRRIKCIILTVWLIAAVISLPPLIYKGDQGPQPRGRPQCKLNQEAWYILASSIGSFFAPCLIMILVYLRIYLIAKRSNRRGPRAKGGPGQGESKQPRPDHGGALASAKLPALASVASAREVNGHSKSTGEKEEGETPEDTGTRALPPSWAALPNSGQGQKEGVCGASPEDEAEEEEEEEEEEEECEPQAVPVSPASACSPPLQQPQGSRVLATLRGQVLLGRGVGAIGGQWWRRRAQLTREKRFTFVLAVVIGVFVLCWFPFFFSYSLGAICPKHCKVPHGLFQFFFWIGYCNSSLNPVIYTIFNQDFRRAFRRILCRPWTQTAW

[2] = target: Beta-1 adrenergic receptor (Homo sapiens, UniProt P08588); assay type: functional
Mu-type opioid receptor = Mu-type opioid receptor (Homo sapiens, UniProt P35372)
[3] = target: Growth hormone secretagogue receptor type 1 (Homo sapiens, UniProt Q92847)
[4] = target: Sodium-dependent dopamine transporter (Homo sapiens, UniProt Q01959)
[5] = target: T2, 5-hydroxytryptamine receptor 2C (Homo sapiens, UniProt P28335)
T2 sequence (P28335 whole entry): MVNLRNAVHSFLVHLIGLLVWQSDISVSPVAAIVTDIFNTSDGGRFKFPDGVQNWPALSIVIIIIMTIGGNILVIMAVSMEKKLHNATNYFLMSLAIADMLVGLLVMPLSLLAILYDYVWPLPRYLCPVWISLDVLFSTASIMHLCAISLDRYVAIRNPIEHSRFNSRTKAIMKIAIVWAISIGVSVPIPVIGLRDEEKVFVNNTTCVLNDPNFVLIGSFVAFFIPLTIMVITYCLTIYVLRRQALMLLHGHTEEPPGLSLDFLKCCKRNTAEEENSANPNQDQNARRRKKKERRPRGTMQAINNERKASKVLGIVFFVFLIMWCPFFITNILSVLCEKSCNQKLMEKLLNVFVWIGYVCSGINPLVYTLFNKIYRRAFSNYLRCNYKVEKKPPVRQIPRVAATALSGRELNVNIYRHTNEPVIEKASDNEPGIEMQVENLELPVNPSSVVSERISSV

Thromboxane A2 receptor = target: T3, Thromboxane A2 receptor (Homo sapiens, UniProt P21731)
T3 sequence (P21731 whole entry): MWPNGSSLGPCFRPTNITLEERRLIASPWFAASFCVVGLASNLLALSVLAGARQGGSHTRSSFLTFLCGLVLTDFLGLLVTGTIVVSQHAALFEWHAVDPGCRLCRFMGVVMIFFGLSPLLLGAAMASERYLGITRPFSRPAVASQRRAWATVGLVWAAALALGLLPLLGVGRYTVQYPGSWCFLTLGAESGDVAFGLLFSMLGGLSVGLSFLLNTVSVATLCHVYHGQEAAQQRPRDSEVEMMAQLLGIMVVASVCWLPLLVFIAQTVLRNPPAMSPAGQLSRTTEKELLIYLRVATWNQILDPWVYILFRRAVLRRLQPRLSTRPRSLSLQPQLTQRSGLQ

[6] = target: T4, Gamma-aminobutyric acid receptor subunit alpha-1 (Rattus norvegicus, UniProt P62813)
Histamine H2 receptor = Histamine H2 receptor (Homo sapiens, UniProt P25021); assay type: functional, cell-based
[7] = target: Beta-2 adrenergic receptor (Homo sapiens, UniProt P07550)
[8] = target: T4, Gamma-aminobutyric acid receptor subunit alpha-1; remark: listed apart in the source
Progesterone receptor = target: T5, Progesterone receptor (Homo sapiens, UniProt P06401); assay type: functional
T5 sequence (P06401 whole entry): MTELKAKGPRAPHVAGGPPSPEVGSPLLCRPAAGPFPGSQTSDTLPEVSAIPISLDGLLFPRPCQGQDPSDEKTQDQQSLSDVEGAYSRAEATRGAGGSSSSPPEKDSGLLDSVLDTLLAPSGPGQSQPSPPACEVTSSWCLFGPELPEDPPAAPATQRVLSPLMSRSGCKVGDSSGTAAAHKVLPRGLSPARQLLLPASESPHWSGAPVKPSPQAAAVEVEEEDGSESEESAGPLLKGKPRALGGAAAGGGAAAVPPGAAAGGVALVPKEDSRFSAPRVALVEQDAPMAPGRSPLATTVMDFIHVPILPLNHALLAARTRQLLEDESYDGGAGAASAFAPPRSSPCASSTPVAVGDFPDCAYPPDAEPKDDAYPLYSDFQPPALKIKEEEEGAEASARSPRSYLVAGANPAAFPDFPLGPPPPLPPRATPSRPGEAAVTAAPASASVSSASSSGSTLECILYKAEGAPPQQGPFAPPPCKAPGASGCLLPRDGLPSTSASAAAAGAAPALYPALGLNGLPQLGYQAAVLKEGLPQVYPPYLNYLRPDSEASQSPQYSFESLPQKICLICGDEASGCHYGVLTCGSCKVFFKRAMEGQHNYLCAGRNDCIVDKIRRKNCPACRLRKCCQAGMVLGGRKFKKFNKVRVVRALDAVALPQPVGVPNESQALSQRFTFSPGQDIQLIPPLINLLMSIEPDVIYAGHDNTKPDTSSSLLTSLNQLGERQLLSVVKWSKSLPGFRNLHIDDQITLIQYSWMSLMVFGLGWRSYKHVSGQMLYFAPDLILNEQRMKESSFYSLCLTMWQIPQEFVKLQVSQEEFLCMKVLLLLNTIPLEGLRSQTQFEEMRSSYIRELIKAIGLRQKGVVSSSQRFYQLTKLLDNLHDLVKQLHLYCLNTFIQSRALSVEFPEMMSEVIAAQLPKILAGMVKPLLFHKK
Also: assay procedure not described here.

Growth hormone secretagogue receptor type 1, sequence (Q92847 whole entry): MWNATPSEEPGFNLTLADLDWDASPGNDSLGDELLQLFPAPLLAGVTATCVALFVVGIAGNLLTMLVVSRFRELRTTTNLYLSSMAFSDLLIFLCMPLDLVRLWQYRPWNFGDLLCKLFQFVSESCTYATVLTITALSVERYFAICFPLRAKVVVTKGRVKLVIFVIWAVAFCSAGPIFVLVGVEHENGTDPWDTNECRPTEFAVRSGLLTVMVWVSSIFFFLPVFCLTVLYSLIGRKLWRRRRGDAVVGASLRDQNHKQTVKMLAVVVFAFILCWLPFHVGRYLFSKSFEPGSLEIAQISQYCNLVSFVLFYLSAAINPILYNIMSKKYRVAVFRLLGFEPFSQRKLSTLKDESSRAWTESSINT
Histamine H2 receptor, sequence (P25021 whole entry): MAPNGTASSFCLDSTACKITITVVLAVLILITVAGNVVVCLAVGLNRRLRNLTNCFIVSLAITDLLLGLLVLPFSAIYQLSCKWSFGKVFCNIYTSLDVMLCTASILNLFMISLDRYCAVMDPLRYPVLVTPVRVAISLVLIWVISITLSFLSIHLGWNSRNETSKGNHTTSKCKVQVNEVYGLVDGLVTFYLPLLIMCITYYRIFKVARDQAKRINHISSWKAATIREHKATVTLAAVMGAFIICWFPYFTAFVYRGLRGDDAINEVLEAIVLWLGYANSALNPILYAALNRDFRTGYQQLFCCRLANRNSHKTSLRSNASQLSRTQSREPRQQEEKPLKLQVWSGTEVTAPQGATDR
Mu-type opioid receptor, sequence (P35372 whole entry): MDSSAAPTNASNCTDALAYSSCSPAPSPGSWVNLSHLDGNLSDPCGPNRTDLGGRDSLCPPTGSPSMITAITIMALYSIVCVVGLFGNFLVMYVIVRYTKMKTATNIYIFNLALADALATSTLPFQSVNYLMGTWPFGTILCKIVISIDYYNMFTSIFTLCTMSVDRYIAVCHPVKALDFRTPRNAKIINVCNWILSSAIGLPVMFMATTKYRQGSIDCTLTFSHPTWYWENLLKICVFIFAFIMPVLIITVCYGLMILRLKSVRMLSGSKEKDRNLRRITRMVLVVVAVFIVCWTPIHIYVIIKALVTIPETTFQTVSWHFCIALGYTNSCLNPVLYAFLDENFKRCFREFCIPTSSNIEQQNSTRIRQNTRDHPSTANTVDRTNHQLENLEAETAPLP
Sodium-dependent dopamine transporter, sequence (Q01959 whole entry): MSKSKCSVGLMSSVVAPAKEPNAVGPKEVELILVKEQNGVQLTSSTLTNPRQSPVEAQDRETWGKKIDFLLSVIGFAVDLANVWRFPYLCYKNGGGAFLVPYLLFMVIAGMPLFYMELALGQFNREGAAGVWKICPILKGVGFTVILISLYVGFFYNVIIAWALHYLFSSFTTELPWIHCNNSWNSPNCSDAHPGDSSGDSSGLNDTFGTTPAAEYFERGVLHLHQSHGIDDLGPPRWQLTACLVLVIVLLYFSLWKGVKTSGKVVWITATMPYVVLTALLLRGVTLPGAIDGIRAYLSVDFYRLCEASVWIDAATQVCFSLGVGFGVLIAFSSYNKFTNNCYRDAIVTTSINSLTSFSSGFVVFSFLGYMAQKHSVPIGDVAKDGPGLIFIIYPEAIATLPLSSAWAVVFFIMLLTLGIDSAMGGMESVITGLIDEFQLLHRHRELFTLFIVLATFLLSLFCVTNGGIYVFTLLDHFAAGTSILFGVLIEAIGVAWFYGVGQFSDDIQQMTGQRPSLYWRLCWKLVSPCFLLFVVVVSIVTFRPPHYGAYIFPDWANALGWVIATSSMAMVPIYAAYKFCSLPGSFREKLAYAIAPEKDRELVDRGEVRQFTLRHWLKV
Beta-2 adrenergic receptor, sequence (P07550 whole entry): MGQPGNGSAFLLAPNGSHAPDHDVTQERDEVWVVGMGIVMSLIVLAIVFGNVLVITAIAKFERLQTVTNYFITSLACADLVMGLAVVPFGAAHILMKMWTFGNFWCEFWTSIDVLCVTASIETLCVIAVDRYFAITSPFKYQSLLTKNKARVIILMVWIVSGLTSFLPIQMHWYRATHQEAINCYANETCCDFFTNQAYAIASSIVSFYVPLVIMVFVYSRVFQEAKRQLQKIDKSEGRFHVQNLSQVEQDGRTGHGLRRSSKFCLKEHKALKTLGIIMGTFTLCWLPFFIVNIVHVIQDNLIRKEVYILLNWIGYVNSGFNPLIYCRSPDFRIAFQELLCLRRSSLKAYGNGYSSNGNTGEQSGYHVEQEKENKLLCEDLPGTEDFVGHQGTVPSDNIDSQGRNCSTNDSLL
T4 sequence (P62813 whole entry): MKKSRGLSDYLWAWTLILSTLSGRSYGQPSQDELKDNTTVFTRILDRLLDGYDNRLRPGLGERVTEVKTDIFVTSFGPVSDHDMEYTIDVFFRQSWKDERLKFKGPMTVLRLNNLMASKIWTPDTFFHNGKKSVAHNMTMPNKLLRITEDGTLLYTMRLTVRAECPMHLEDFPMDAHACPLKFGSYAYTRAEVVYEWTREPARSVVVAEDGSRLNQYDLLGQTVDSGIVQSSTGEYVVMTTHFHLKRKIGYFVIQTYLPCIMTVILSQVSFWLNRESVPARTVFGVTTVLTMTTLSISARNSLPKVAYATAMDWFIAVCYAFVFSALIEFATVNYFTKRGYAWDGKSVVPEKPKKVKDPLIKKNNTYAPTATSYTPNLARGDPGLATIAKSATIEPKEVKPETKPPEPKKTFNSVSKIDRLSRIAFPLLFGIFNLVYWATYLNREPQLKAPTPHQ
Beta-1 adrenergic receptor, sequence (P08588 whole entry): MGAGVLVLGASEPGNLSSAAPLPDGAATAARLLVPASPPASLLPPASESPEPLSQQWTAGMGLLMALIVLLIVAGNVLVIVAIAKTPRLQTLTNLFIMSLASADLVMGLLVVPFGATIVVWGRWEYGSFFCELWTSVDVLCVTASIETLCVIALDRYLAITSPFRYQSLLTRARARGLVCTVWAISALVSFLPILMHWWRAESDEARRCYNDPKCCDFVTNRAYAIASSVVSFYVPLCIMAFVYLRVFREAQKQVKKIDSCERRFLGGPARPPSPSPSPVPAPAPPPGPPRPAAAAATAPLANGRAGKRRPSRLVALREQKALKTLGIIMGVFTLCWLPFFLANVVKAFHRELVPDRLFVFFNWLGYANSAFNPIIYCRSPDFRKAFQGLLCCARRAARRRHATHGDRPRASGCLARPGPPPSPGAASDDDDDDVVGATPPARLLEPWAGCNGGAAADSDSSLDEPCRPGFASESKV

| Compound | AC50 [1] [µM] | AC50 [2] [µM] | AC50 (Mu-type opioid receptor) [µM] | AC50 [3] [µM] | AC50 [4] [µM] | AC50 [5] [µM] | AC50 (Thromboxane A2 receptor) [µM] | AC50 [6] [µM] | AC50 (Histamine H2 receptor) [µM] | AC50 [7] [µM] | AC50 [8] [µM] | AC50 (Progesterone receptor) [µM] |
| --- | --- | --- | --- | --- | --- | --- | --- | --- | --- | --- | --- | --- |
| C[C@@H]1C[C@H]2[C@@H]3C[C@H](F)C4=CC(=O)C=C[C@]4(C)[C@@]3(F)[C@@H](O)C[C@]2(C)[C@@]1(OC(=O)c1ccco1)C(=O)SCF [FLUTICASONE FUROATE] | > 10 | > 10 | > 30 | > 10 | > 10 | > 30 | > 10 | > 30 | > 10 | > 10 | > 30 | – |
| NC[C@H]1CC[C@H](C(=O)Oc2ccc(CCC(=O)O)cc2)CC1 [CETRAXATE] | – | – | – | – | – | > 30 | – | > 30 | > 30 | – | > 30 | – |
| CC(O)(CS(=O)(=O)c1ccc(F)cc1)C(=O)Nc1ccc(C#N)c(C(F)(F)F)c1 (stereo unspecified) [BICALUTAMIDE] | – | > 30 | > 10 | 2.2 | > 30 | > 30 | > 30 | > 10 | > 10 | > 30 | > 30 | > 30 |
| CC(=O)O[C@]1(C(C)=O)CC[C@H]2[C@@H]3C=C(Cl)C4=CC(=O)[C@@H]5C[C@@H]5[C@]4(C)[C@H]3CC[C@@]21C [CYPROTERONE ACETATE] | – | > 10 | > 30 | > 30 | > 30 | > 30 | > 30 | > 10 | – | > 10 | > 30 | – |
| O=S1(=O)CCN(CN2CCS(=O)(=O)NC2)CN1 [TAUROLIDINE] | 20 | > 30 | – | – | > 30 | > 30 | > 30 | > 30 | > 30 | – | > 30 | > 30 |
| O=C(/C=C/c1cccc(S(=O)(=O)Nc2ccccc2)c1)NO [BELINOSTAT] | > 10 | > 10 | > 30 | > 30 | > 10 | > 30 | > 30 | > 10 | – | > 10 | > 30 | – |
| CC(=O)OCC(=O)[C@@]1(O)CC[C@H]2[C@@H]3CCC4=CC(=O)CC[C@]4(C)[C@H]3[C@@H](O)C[C@@]21C [HYDROCORTISONE ACETATE] | – | – | – | – | – | – | – | – | – | – | > 30 | – |
| O=C(O)[C@@H]1C[C@@H](O)CN1 | – | – | – | – | – | – | – | – | – | – | > 30 | – |
| NNCCc1ccccc1 [PHENELZINE] | – | – | – | – | – | – | – | – | – | – | > 30 | – |
| N[C@@H](Cc1ccccc1)C(=O)O [PHENYLALANINE] | – | – | – | – | – | – | – | – | – | – | > 30 | – |
| CC(=O)[C@]1(N)Cc2c(O)c3c(c(O)c2[C@@H](O[C@H]2C[C@H](O)[C@H](O)CO2)C1)C(=O)c1ccccc1C3=O [AMRUBICIN] | – | – | – | – | – | – | – | – | – | – | > 30 | – |
| CN1CCCN(C(c2ccccc2)c2ccc(Cl)cc2)CC1 (stereo unspecified) [HOMOCHLORCYCLIZINE] | – | – | – | – | – | – | – | – | – | – | > 30 | – |
| Cc1cc2c(cc1S(N)(=O)=O)S(=O)(=O)CCC2 | – | – | – | – | – | – | – | – | – | – | > 30 | – |
